Reference: paper PMC10306110 (Cell, 2023)

How the values were obtained:
SERT-S277C = SERT-S277C (Rattus norvegicus, UniProt P31652, C109A/C15A/C21A/C357I/C622A/S277C); experiment: Cys277 accessibility; assay type: biochemical
[1] = tested on: wild-type (WT) and VMAT2 heterozygous (HET) mice; experiment: Tail suspension in VMAT2 mice; assay type: in vivo, mouse; settings: for anti-depressant-like effects 24 h post-injection: VMAT2 HET, 2 mg/kg ‘8090, 0.5 mg/kg ‘8219, 20 mg/kg Flx, 30 mg/kg Ibo; for immobility times: acute (30 min), 20 mg/kg Flx versus vehicle, 30 mg/kg Ibo versus 1 mg/kg ‘8090 and 0.5 mg/kg ‘8219
[2] = tested on: learned helpless C57BL/6J mice; experiment: Learned helplessness: sucrose preference; assay type: in vivo, mouse; settings: for overall sucrose preference at testing: 40 mg/kg Ibo
[3] = tested on: learned helpless C57BL/6J mice; experiment: Learned helplessness: tail suspension; assay type: in vivo, mouse; settings: for immobility upon treatment-withdrawal / anti-depressant-like activities in tail suspension: 40 mg/kg Ibo; for immobility upon treatment-withdrawal: 10 mg/kg Flx; for anti-depressant-like activities in tail suspension: 10 mg/kg Flx daily
[4] = tested on: learned helpless C57BL/6J mice; experiment: Learned helplessness: shock escape; assay type: in vivo, mouse; settings: for shock-escape performance: 40 mg/kg Ibo, 10 mg/kg Flx
[5] = tested on: learned helpless C57BL/6J mice; experiment: Elevated zero maze; assay type: in vivo, mouse; settings: for locomotion in the zero maze versus vehicle: 5 mg/kg ‘8090, 40 mg/kg Ibo
[6] = tested on: learned helpless C57BL/6J mice; experiment: Elevated 8-arm radial maze; assay type: in vivo, mouse
SERT [7] = biological target: T1, SERT (Rattus norvegicus, UniProt P31652); settings: cited from earlier work
SERT-Y107C [8] = biological target: T2, SERT-Y107C (Rattus norvegicus, UniProt P31652, C109A/Y107C); settings: cited from earlier work
C56BL/6J mice = experiment: Elevated plus-maze assay; assay type: in vivo, mouse; settings: ‘8219 and ‘8090 10 mg/kg/day for 10 days; paroxetine 10 mg/kg single
morphine-treated mice = experiment: Naloxone-precipitated opioid withdrawal assay; assay type: in vivo, mouse; settings: 10 mg/kg i.p.
SERT [9] = biological target: T1, SERT; experiment: [125I]β-CIT displacement binding in membranes from SERT-transfected HeLa cells
rSERT = rSERT (Rattus norvegicus, UniProt P31652); experiment: [3H]5-HT transport into RBL cells or SERT-transfected HeLa cells; assay type: cell-based
SERT [10] = biological target: T1, SERT; experiment: Efflux of accumulated [3H]5-HT induced by extracellular compounds; assay type: cell-based; settings: saturating concentrations
SERT-Y107C [11] = biological target: T2, SERT-Y107C; experiment: Cys107 accessibility; assay type: cell-based; settings: saturating concentration (10x KD)
hSERT = hSERT (Homo sapiens, UniProt P31645); assay type: cell-based
5-HT1A receptor = biological target: T3, 5-HT1A receptor (Homo sapiens, UniProt P08908); experiment: GloSensor cAMP Gi agonist activity assay; assay type: cell-based; settings: concentration-response
T3 sequence (P08908 1-422): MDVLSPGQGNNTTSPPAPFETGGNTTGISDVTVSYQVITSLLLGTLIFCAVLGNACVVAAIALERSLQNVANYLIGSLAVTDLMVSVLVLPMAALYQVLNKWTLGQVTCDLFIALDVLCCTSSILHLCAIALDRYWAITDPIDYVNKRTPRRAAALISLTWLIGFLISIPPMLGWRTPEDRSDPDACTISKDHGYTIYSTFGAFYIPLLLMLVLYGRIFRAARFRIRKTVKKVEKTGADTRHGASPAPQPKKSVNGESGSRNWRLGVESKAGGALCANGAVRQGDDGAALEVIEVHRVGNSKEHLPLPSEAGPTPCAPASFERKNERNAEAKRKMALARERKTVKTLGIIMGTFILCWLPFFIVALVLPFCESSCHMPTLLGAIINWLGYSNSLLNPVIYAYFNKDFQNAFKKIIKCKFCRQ

[12] = Pharmacokinetics, brain exposure after i.p. dosing; assay type: in vivo; settings: 10 mg/Kg intraperitoneal (i.p.), mouse
[13] = tested on: learned helpless C57BL/6J mice; experiment: Sensitivity to foot-shock; assay type: in vivo, mouse; settings: days 13 and 22
[14] = tested on: learned helpless C57BL/6J mice; experiment: Open field motor activity; assay type: in vivo, mouse; settings: day 12; 2 or 5 mg/kg ‘8090, 5 mg/kg ‘8219; 40 mg/kg Ibo, 10 mg/kg Flx
human DAT = human DAT (Homo sapiens, UniProt Q01959); experiment: Neurotransmitter transporter uptake assay, DAT; settings: read-out: Ki against DAT; cell-based functional assay
human NET = human NET (Homo sapiens, UniProt P23975); experiment: Neurotransmitter transporter uptake assay, NET; settings: read-out: Ki against NET; cell-based functional assay
[15] = presence of Na+, cocaine 10 µM, ibogaine 10 µM, ‘8219 0.05 µM, ‘8090 0.15 µM

Sequence of hSERT (P31645 whole entry): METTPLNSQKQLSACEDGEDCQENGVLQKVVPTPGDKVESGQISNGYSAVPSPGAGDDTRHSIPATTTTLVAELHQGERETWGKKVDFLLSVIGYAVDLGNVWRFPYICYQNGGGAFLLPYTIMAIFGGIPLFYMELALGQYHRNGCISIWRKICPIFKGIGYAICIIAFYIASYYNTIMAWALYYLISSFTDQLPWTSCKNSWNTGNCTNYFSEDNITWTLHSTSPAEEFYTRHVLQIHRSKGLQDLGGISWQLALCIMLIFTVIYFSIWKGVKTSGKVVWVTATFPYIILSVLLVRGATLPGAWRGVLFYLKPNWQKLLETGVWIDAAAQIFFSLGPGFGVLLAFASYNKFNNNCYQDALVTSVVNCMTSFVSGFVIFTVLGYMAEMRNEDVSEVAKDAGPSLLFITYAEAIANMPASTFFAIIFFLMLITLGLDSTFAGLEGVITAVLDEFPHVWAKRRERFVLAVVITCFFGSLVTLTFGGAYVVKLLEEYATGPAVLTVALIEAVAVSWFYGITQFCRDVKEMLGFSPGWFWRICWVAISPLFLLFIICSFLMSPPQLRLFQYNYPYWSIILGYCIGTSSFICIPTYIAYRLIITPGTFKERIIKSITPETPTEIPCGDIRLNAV
Sequence of human DAT (Q01959 whole entry): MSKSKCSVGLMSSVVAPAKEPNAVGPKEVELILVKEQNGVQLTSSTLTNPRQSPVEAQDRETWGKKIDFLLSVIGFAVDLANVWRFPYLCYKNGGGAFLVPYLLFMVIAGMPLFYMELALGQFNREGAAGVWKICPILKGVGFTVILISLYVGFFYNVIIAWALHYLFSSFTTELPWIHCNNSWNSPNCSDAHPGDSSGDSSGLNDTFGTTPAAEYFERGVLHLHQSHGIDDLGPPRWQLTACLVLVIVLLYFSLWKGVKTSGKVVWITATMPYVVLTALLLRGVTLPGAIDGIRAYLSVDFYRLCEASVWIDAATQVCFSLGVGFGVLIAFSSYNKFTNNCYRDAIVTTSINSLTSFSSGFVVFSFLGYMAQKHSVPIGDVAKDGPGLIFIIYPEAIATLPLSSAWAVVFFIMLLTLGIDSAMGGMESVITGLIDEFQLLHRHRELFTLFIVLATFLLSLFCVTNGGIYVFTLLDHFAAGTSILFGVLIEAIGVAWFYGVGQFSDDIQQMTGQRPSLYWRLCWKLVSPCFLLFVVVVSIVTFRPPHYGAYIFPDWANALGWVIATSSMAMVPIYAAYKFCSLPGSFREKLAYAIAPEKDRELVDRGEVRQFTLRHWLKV
Sequence of human NET (P23975 whole entry): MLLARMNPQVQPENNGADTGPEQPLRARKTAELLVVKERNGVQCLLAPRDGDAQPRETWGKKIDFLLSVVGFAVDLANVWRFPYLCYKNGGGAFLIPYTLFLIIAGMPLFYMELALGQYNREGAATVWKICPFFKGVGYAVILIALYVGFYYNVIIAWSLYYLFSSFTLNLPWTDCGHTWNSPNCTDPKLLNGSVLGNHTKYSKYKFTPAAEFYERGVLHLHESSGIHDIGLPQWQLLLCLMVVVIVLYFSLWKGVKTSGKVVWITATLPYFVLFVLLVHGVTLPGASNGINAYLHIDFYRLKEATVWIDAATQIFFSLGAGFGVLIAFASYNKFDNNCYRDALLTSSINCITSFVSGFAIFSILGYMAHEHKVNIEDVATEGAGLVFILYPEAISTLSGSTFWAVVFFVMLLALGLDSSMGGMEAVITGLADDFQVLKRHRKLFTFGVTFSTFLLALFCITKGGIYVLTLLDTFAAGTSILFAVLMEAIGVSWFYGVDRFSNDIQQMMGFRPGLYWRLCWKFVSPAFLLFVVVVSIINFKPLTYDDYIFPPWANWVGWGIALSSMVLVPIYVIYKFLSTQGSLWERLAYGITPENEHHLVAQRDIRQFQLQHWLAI

Question: For ibogaine, which “Cys277 reactivity (cytoplasmic pathway) versus control” value (SERT-S277C; [15]) is on record?
Answer: dramatically increased Cys277 reactivity

Question: What about the “anti-depressant-like effects 24 h post-injection” value [1] of the same compound?
Answer: effects were lost

Question: And the immobility times ([1]; WT)?
Answer: increased

Question: And the “overall sucrose preference at testing” value ([2]; 10 mg/kg Flx daily)?
Answer: increased overall sucrose preference

Question: What about the immobility upon treatment-withdrawal [3] of the same compound?
Answer: immobility was enhanced

Question: What about the “anti-depressant-like activities in tail suspension” value [3] of the same compound?
Answer: transient

Question: What about the shock-escape performance [4] of the same compound?
Answer: improve shock-escape performance

Question: And the “locomotion in the zero maze versus vehicle” value [5]?
Answer: decreased

Question: And the “locomotion in the radial maze” value ([6]; 40 mg/kg Ibo)?
Answer: suppressed locomotion

Question: What about the “effect of Cl− on binding to SERT” value (SERT [7]) of the same compound?
Answer: independent of Cl^−

Question: What about the “effect of Na+ on binding to SERT” value (SERT [7]) of the same compound?
Answer: inhibited by Na^+

Question: What about the “Cys107 accessibility (extracellular pathway)” value (SERT-Y107C [8]) of the same compound?
Answer: decreases its accessibility

Question: Which “Cys277 reactivity (cytoplasmic pathway) versus control” value (SERT-S277C; [15]) does the source give for `COC(=O)[C@H]1[C@@H](OC(=O)c2ccccc2)C[C@@H]2CC[C@H]1N2C` [cocaine, reference compound] here?
Answer: decreased Cys277 reactivity

Question: What about the “Cys107 accessibility (extracellular pathway)” value (SERT-Y107C [8]) of the same compound?
Answer: renders it more accessible

Question: For `Fc1ccc([C@@H]2CCNC[C@H]2COc2ccc3c(c2)OCO3)cc1` [paroxetine, reference compound], which “open arm entries and time compared to vehicle” value (C56BL/6J mice) is on record?
Answer: spent more time exploring the open arms

Question: And the “naloxone-precipitated morphine withdrawal symptoms” value (morphine-treated mice)?
Answer: significantly reduced naloxone-precipitated jumps and rearings

Question: Which Ki (SERT [9]; displacement of [125I]β-CIT) does the source give for `Fc1ccc(-c2csc(N3CCNCC3)n2)cc1` [‘8090] here?
Answer: 0.014 µM

Question: And the “increase of inhibitory potency (binding) by Na+” value (SERT [9]; displacement of [125I]β-CIT)?
Answer: 15 fold

Question: What about the Kd (SERT [9]; read-out: KD values used for kon calculation) of the same compound?
Answer: 0.015 µM

Question: And the “Vmax for 5-HT transport in presence of inhibitor” value (rSERT; 0.15 μM ‘8219, 0.7 μM ‘8090, HeLa cells transfected with rSERT, control 1.7 ± 0.25)?
Answer: 0.69 ± 0.1 pmol/m/well

Question: And the “type of inhibition of 5-HT influx” value (rSERT; decreased Vmax with minimal effect on KM)?
Answer: non-competitive inhibition

Question: And the “SERT substrate activity (stimulation of [3H]5-HT efflux)” value (SERT [10])?
Answer: not SERT substrates

Question: And the “Cys277 reactivity (cytoplasmic pathway) versus control” value (SERT-S277C; absence of Na+ (replaced by NMDG), 2 µM)?
Answer: had no influence on the pathway

Question: What about the “Cys277 reactivity (cytoplasmic pathway) versus control” value (SERT-S277C; [15]) of the same compound?
Answer: decreased reactivity slightly

Question: What about the “Cys107 reactivity (extracellular pathway)” value (SERT-Y107C [11]) of the same compound?
Answer: decreased Cys107 reactivity

Question: And the dissociation rate (hSERT; HEK-293 cells expressing hSERT pre-incubated with 50 nM ‘8219 or 75 nM ‘8090, washout)?
Answer: 1.82 ± 0.09 × 10^−3 s^−1

Question: And the “half time for equilibration of binding” value (hSERT; at concentrations giving half-maximal inhibition, calculated)?
Answer: less than 7 minutes

Question: What about the “Gi agonist activity at 5-HT1A relative to reference agonist 5-HT” value (5-HT1A receptor) of the same compound?
Answer: about 6%

Question: And the “brain Cmax” value [12]?
Answer: 12000 ng/g

Question: And the half-life ([12]; brain)?
Answer: 44.3 min

Question: What about the “anti-depressant-like effects 24 h post-injection” value [1] of the same compound?
Answer: maintained

Question: And the “immobility 24 h post-injection” value ([1]; WT, 1 mg/kg compared to 0.5 mg/kg)?
Answer: significantly decreased immobility

Question: And the “sucrose preference compared to vehicle” value ([2]; daily i.p. dosing, 2 or 5 mg/kg ‘8090, 5 mg/kg ‘8219)?
Answer: significant preference for sucrose compared to vehicle

Question: And the “immobility times on days 0, 1, and 3” value ([3]; 2 or 5 mg/kg ‘8090, 5 mg/kg ‘8219 daily)?
Answer: reduced

Question: And the “shock-escape performance on day 23 versus controls” value ([4]; 1 mg/kg ‘8090 group)?
Answer: higher

Question: What about the “shock-escape performance (numbers of escapes) on days 10 and 23” value ([4]; 5 mg/kg) of the same compound?
Answer: increased over vehicle

Question: What about the reactivity to foot-shock [13] of the same compound?
Answer: do not affect reactivity to foot-shock

Question: What about the “locomotion in the open field” value [14] of the same compound?
Answer: no effects were observed

Question: What about the “locomotion in the zero maze versus vehicle” value [5] of the same compound?
Answer: increased

Question: And the “time in and entry into the open areas versus vehicle” value ([5]; 2 or 5 mg/kg ‘8090, 5 mg/kg ‘8219, day 6)?
Answer: spent more time and entered the open areas more readily than vehicle-treated mice

Question: What about the “open arm entries and time compared to vehicle” value (C56BL/6J mice) of the same compound?
Answer: increased the percentage of entries into and the time spent exploring the open arms

Question: What about the “arm entries before a second repeated entry versus vehicle” value ([6]; 2 mg/kg ‘8090 or 5 mg/kg ‘8219, day 9) of the same compound?
Answer: entered more arms before making a second repeated entry

Question: What about the Ki (human DAT) of the same compound?
Answer: 6.6 µM

Question: And the Ki (human NET)?
Answer: 10 µM

Question: What does the source list for `CNCCC(Oc1ccc(C(F)(F)F)cc1)c1ccccc1` (stereo not shown) [Flx, fluoxetine]?
Answer: anti-depressant-like effects 24 h post-injection [1]: maintained; immobility times ([1]; WT): increased; sucrose preference over vehicle controls on day −2 ([2]; 10 mg/kg Flx daily): enhanced preference for sucrose; overall sucrose preference at testing ([2]; 10 mg/kg Flx daily): increased overall sucrose preference; immobility upon treatment-withdrawal [3]: immobility was enhanced; anti-depressant-like activities in tail suspension [3]: transient; shock-escape performance [4]: improve shock-escape performance; reactivity to foot-shock [13]: do not affect reactivity to foot-shock; locomotion in the open field [14]: No locomotor differences were found; open area time compared to Ibo and vehicle controls ([5]; 10 mg/kg Flx): increased open area time; arm entries before repeating a first entry compared to Ibo and vehicle mice ([6]; 10 mg/kg Flx, ANCOVA): entered more arms before repeating a first entry
